Assay results reported in patent US11622965B2, “Methods for treating lymphoid malignancies” (ZHEJIANG DTRM BIOPHARMA CO. LTD., priority 2017, dated 2023).
“Also recorded” adds a separate entry of the source.

Assays:
toxicokinetics in rats = assay type: in vivo
Source text: (§1) Both patents are incorporated by reference herein in their entirety.

EGFR kinase = EGFR kinase (Homo sapiens, UniProt P00533); test: 46 kinase panel; assay type: biochemical
Source text: as §1

FGFR1 = FGFR1 (Homo sapiens, UniProt P11362); test: 46 kinase panel; assay type: biochemical
Source text: as §1

FGFR2 = FGFR2 (Homo sapiens, UniProt P21802); test: 46 kinase panel; assay type: biochemical
Source text: as §1

JAK3 = target: T1, JAK3 (Homo sapiens, UniProt P52333); test: 46 kinase panel; assay type: biochemical
T1 sequence (P52333 1-1124): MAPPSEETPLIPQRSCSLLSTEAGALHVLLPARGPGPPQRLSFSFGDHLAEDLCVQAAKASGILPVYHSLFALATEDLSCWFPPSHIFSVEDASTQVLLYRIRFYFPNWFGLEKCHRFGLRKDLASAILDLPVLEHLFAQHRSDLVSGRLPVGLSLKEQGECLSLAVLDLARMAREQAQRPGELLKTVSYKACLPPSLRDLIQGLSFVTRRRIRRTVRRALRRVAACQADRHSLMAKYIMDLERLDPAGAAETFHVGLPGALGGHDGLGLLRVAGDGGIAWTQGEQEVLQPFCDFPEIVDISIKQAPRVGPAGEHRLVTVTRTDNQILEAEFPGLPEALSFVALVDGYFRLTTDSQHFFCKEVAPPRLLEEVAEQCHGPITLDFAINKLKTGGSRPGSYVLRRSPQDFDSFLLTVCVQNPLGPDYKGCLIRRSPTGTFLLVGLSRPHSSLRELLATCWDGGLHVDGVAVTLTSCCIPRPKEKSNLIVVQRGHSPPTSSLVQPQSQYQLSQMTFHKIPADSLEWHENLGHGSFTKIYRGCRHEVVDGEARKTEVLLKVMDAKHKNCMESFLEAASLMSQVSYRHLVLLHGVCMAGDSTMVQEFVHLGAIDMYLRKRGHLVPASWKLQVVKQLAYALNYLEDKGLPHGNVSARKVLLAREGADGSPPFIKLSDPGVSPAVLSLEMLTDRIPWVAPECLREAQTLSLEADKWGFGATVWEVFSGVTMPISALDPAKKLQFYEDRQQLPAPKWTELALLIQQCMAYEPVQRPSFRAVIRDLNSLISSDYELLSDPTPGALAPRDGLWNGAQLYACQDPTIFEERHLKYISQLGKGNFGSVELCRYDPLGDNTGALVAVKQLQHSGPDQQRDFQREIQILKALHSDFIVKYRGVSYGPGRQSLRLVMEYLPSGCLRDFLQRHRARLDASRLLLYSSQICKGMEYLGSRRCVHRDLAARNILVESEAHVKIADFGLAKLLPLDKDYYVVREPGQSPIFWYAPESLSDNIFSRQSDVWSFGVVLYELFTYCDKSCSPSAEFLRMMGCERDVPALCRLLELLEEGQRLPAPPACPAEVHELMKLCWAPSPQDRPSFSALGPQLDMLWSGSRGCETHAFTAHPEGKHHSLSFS
Source text: as §1

[1] = China Phase I trial of Compound A monotherapy: safety; assay type: in vivo, human
Protocol: The pharmacokinetics of Compound A was also evaluated.
Patients who met the following inclusion criteria were enrolled in the trials in China: i) age≥18 years, no gender limits, and provide the informed consent form; ii) B-cell lymphoma classification is based on WHO classified definition, including CLL, small lymphocytic lymphoma (SLL); CLL with 17p-; MCL; WM; DLBCL, etc.; iii) measurable lesion: NHL requires at least one≥2 cm two-dimensional lesion diameter, CLL≥5000 leukemia cells/mm^3, WM IgM≥1000 mg/dL, bone marrow lymph plasma-like cells infiltration, histopathologically diagnosed as DLBCL; iv) patients failed in lymphoma treatment at least once and have no standard therapeutic options; DLBCL patients who are not suitable for or reject autologous stem cell transplantation; and v) ECOG (Eastern Cooperative Oncology Group) performance status 0˜1. Meanwhile, patients who met any one of the following criteria were excluded: i) disease with changes of pathological tissue types (including large cell transformation); ii) patients received other BTK inhibitor therapy (China only); and iii) patients with HIV infection, or HBs-Ag or HBc-Ab positive.
No intrapatient dose escalation of Compound A was permitted.

[2] = test system: relapsed/refractory CLL and B-cell lymphomas; test: China and U.S. first-in-human monotherapy trials, overall conclusions
Source text: The primary endpoint of the trials was safety, while the secondary endpoints of the trials were anti-tumor activity and pharmacokinetic parameters. Patients enrolled in the trials met the following criteria: relapsed/refractory CLL and B-cell lymphoma with no available effective therapies, ≥18 years of age, and an Eastern Cooperative Oncology Group (ECOG) score≤1. […] The 3+3 dose-escalation method was used.
Relapsed/refractory B-cell lymphoma patients who met the aforementioned enrollment criteria were enrolled without randomization. […] The patients were required to stay in the hospital for 24 hours after the first dosing. […] The first 28 days of treatment was considered DLT period.
(§2) Studies on the 200 mg and 300 mg cohorts were conducted in a standard 3+3 design.
(§3) The response rate, including the partial response and complete response rate, was defined according to the Revised International Working Group Criteria for non-Hodgkin's lymphoma (Cheson et al., J Clin Oncol 25:579-86 (2007)). Drug-related adverse events (AEs), including DLT, non-hematologic AEs and hematologic AEs were recorded. […] The PK indexes of single dose administration included AUClast, AUCO-∞, Cmax, tmax, t1/2, CL/F and Vd/F. The PK indexes of steady state under continuous administration included AUCss, Cmax,ss and tmax,ss.

[3] = test system: relapsed/refractory CLL, Hodgkin lymphoma and B-cell NHL including DLBCL; test: U.S. Phase Ia trial of Compound A monotherapy: efficacy; assay type: in vivo, human; set-up: key to response: PD: disease progression; conditions: for time on continued monotherapy treatment: treatment continuing
Protocol: Eligibility criteria for the U.S. study were similar to the China study, but histological subtypes included patients with relapsed/refractory CLL, Hodgkin lymphoma and B-cell NHL including DLBCL. Patients who had prior exposure to BTK inhibiting agents were permitted in the trial.
as §2, §3

[4] = U.S. Phase Ia trial of Compound A monotherapy: pharmacokinetics; assay type: in vivo; conditions: human, plasma, oral, Compound A Plasma Level
Protocol: as §2
Drug-related adverse events (AEs), including DLT, non-hematologic AEs and hematologic AEs were recorded. […] The PK indexes of single dose administration included AUClast, AUCO-∞, Cmax, tmax, t1/2, CL/F and Vd/F. The PK indexes of steady state under continuous administration included AUCss, Cmax,ss and tmax,ss.

[5] = 13 patients, 50-400 mg daily, 28 day dosing schedule

EGFR kinase, sequence (P00533 25-1210): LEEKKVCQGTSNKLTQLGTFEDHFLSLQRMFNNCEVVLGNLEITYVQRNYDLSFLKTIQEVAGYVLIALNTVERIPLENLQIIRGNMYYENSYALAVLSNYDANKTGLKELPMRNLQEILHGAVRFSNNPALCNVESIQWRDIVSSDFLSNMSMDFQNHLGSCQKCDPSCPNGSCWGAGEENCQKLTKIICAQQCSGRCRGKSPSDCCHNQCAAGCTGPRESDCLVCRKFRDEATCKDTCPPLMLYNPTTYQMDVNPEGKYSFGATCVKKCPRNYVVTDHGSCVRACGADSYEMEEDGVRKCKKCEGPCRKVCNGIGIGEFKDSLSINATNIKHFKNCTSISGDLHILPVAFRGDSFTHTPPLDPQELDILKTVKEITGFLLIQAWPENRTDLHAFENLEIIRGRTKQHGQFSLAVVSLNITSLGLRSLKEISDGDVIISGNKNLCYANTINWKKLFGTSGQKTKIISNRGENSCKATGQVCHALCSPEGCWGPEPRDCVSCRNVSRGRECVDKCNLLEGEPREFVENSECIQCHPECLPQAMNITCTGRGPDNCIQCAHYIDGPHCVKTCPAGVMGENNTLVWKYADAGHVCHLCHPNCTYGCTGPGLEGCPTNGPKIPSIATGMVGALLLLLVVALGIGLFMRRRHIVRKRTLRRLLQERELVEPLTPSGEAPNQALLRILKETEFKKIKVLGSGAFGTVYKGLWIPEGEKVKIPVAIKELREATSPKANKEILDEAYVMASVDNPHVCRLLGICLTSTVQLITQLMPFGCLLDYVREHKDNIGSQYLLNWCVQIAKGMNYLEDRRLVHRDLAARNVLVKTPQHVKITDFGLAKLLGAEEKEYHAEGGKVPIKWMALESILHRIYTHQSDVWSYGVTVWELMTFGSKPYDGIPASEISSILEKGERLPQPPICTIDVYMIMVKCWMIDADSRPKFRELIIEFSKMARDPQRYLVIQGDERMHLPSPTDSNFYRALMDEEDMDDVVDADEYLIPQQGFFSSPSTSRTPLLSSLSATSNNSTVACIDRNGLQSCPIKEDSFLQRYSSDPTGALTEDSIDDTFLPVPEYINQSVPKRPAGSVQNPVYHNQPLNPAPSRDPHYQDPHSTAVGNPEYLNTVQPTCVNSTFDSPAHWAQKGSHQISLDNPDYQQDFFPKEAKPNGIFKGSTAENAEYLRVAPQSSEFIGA
FGFR2, sequence (P21802 22-821, species assumed): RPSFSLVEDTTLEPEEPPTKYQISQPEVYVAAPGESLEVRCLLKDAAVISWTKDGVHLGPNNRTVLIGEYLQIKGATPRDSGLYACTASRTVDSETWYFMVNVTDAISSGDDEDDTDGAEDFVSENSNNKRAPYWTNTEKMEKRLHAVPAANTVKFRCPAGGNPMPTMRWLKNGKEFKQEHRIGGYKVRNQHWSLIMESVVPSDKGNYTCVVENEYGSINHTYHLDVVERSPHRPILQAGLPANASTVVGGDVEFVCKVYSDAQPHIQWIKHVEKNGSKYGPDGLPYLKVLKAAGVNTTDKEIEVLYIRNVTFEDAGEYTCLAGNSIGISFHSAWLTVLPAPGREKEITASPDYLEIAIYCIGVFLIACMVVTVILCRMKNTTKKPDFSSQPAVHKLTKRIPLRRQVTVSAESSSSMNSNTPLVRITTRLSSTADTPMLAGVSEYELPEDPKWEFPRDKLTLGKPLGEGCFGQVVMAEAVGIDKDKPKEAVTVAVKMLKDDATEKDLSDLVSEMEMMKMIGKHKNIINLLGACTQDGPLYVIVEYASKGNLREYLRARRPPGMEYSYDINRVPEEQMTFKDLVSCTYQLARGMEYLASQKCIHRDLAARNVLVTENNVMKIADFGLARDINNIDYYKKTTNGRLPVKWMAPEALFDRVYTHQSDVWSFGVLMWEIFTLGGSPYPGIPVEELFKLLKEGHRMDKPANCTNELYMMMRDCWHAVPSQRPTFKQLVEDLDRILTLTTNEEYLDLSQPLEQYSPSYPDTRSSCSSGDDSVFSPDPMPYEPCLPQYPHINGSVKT
FGFR1, sequence (P11362 22-822, species assumed): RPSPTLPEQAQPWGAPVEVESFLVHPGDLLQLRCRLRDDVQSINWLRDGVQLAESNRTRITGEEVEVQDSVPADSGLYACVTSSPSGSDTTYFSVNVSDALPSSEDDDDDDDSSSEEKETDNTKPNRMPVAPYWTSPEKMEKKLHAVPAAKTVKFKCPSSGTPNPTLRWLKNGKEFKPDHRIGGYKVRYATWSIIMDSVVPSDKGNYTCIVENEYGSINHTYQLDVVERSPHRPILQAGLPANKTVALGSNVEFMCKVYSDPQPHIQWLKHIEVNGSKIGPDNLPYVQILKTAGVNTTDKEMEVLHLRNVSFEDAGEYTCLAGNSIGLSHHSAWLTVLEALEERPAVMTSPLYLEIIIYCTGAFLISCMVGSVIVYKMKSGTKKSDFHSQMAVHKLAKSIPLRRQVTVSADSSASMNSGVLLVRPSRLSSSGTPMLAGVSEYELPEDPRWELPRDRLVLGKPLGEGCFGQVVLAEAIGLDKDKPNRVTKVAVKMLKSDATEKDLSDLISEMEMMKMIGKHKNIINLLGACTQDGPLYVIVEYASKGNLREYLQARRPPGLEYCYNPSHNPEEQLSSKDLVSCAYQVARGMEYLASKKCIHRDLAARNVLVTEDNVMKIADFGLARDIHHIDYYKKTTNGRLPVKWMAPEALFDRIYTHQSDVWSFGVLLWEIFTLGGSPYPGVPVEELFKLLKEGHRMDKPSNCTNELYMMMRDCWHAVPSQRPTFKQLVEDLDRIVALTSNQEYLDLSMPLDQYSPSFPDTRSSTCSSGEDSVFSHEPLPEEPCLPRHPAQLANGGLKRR

## C=CC(=O)N1CC[C@@H](n2nc(-c3ccc(Oc4c(F)c(F)cc(F)c4F)cc3F)c3c(N)ncnc32)C1 [Compound A, 1-((R)-3-(4-amino-3-(2-fluoro-4-(2,3,5,6-tetrafluorophenoxy)phenyl)-1H-pyrazolo[3,4-d]pyrimidin-1-yl)pyrrolidin-1-yl)prop-2-en-1-one]
Toxicokinetics in rats
  toxicokinetics properties: Improved toxicokinetics properties
EGFR kinase; 46 kinase panel
  inhibition of EGFR: partial inhibition
EGFR kinase; read-out: IC50 against EGFR kinase
  IC50: 110 nM
FGFR1
  inhibition of FGFR1: partial inhibition
FGFR2
  inhibition of FGFR2: partial inhibition
JAK3
  inhibition of JAK3: partial inhibition
[1]
  Grade 2, 4 or 5 hematologic events: No Grade 2, 4 or 5 hematologic events occurred
  Grade 2, 4 or 5 non-hematologic events: No Grade 2, 4 or 5 non-hematologic events occurred
[1]; [5]
  anemia, patients: 23.1%
  leucopenia, patients: 23.1%
  neutropenia, patients: 23.1%
[1]; 50-400 mg daily
  dose-limiting toxicity: No dose-limiting toxicity occurred
[1]; 28 day dosing schedule
  grade of the majority of drug-related AEs: grade 1
[1]; one patient
  Grade 1 alanine aminotransferase (ALT) elevation, patients: 7.7%
  Grade 1 neutropenia, patients: 7.7%
  Grade 3 pneumonia, patients: 7.7%
[1]; two patients
  Grade 3 neutropenia, patients: 15.4%
[2]; China and U.S. trials
  cycles of monotherapy tolerated: up to 23 cycles
[2]; Compound A monotherapy, China and U.S. trials
  maximum tolerated dose: had not been reached
[2]; all patients at all of the dose levels
  exposures to Compound A: adequate exposures
[2]; orally 50-400 mg once daily
  efficacy in WM, MZL, and SLL/CLL patients: preliminary efficacy was observed; also recorded: Efficacy of the Compound has also been observed
[2]; patients with relapsed/refractory CLL and B-cell lymphomas, China and U.S. trials
  safety and tolerability: safe and well tolerated
[3]; B-cell lymphoma patient
  response: 1SD
[3]; B-cell lymphoma, 50 mg
  time on monotherapy until off study for disease progression: five months
[3]; CLL patients (N=2)
  response: 1PR, 1SD
[3]; CLL, 100 mg
  time on continued monotherapy treatment: 13 months
[3]; CLL, 200 mg
  time on monotherapy until off study for disease progression: 8 months
[3]; DLBCL patient
  response: PD
[3]; DLBCL, 200 mg
  time on monotherapy until off study for disease progression: 2 months
[3]; MZL patient
  response: 1PR
[3]; MZL
  time on continued monotherapy treatment: 11 months
[4]; 50 mg, Day 1, 50 mg
  concentration at 0 h: 0 ng/mL
  concentration at 0.5 h: 2.84 ng/mL
  concentration at 1 h: 26.9 ng/mL
  concentration at 2 h: 63.4 ng/mL
  concentration at 4 h: 15.3 ng/mL
  concentration at 6 h: 6.44 ng/mL
  concentration at 24 h: 0 ng/mL
[4]; 100 mg, Day 1, 100 mg
  concentration at 0 h: 9.04 ng/mL
  concentration at 0.5 h: 44.9 ng/mL
  concentration at 1 h: 53.3 ng/mL
  concentration at 2 h: 21.3 ng/mL
  concentration at 4 h: 13.3 ng/mL
  concentration at 6 h: 13.3 ng/mL
  concentration at 24 h: 3.06 ng/mL
[4]; 200 mg, Day 1, 200 mg
  concentration at 0 h: 0 ng/mL
  concentration at 0.5 h: 0 ng/mL
